Data published in patent US12616753B2, “HSP70 inhibitors and methods of using same” (THE WISTAR INSTITUTE, priority 2020, dated 2026).

Key:
[1] = tested on: 1205Lu and HT-29 tumor cell lines; assay: Seahorse XF Cell Mito Stress Test, tumor cell lines; type: cell-based, human; conditions: 500 nM (sublethal), 24 hours
Protocol: FIG. 2A: IMR90 cells (non-transformed fibroblasts), 1205Lu (melanoma), and HT-29 (CRC) cancer cells were treated with sub-lethal doses (500 nM) of the HSP70 inhibitors PET-16 (positive control) or AP-4-139B for 24 hours. Cells were then subjected to the Seahorse Mito Stress Test Assay. Injections were Oligomycin (1 μM, line A), FCPP (0.5-1 μM, line B), and Rotenone/Antimycin A (1 μM, line C). Each graphical representation indicates the mean±standard deviation of a minimum of 5 technical replicates. […] Each experiment was performed in triplicate and independently repeated twice. FIGS. 2B-2D: Basal Oxygen Consumption Rate (ORC) (FIG. 2B), Maximal OCR (FIG. 2C), and ATP production (FIG. 2D) were analyzed in IMR90 fibroblasts, non-transformed colonic epithelial cells (CCD 841 CoN), 1205Lu melanoma cells and HT-29 CRC cells, in the presence or absence of 500 nM HSP70 inhibitors or negative control (VY-3-277). All experiments were performed in triplicate, with each group containing 5-6 technical replicates. ** p<0.01, *** p<0.001, n.s. not significant.
The XF Cell Mito Stress Test was performed. […] For extracellular ATP release, ATP was measured using the CellTiter-Glo Kit (Promega catalog #G7570). […] 10 μl of CellTiter-Glo Reaction Mix was then mixed with 10 μl of culture media; the luminescence signal was detected using a luminometer.

[2] = tested on: CRC cell lines (HT-29, LS411N, and SW620); assay: Trypan Blue exclusion viability assay, CRC cell lines; type: cell-based, human; conditions: 10 μM, 48 hours
Protocol: FIGS. 4A-4F show AP-4-139B is efficacious as a single agent against human CRC in vitro and in vivo. FIG. 4A: Three CRC cell lines (HT-29, LS411N, and SW620) were treated with 10 μM of PET-16 or AP-4-139B for 48 hours. Cell were then subjected to viability assays using Trypan Blue exclusion. *** p<0.001. […] FIGS. 4B-4C: A panel of six CRC cell lines (SW620, HT-29, HCT 116+/−p53, RKO, and LS411N) were plated at a density of 1,000 cells per well in 96-well plates. The next day, cells were treated with the indicated inhibitors for 72 hours. Cells were then subjected to the Alamar Blue cell viability assays. Shown are representative IC50 values of an average of six technical replicates and two biological replicates. FIG. 4D: 2.5×10^6 HT-29 cells were injected subcutaneously into the right flank of NSG mice. Once tumors reached an approximate volume of 100 mm^3, mice were separated randomly into two groups: control vs. AP-4-139B. Mice were treated with 12.5 mg/kg AP-4-139B three times a week. All mice were euthanized 22 days after the start of treatment. Tumor volumes were recorded using digital calipers and using the formula v=length×width^2×0.52. *** p<0.001. n=10 mice per group. FIG. 4E: Immunohistochemistry (IHC) analysis of HT-29 xenograft tumors treated with AP-4-139B. […]

| Compound | basal oxygen consumption rate and ATP production in tumor cell lines [1] | decrease of CRC cell viability [2] |
| --- | --- | --- |
| c1ccc(-c2cn3nc(CCCCCC[P+](c4ccccc4)(c4ccccc4)c4ccccc4)sc3n2)cc1 [AP-4-139B, Triphenyl(6-(6-phenylimidazo[2,1-b][1,3,4]thiadiazol-2-yl)hexyl)phosphonium bromide] | reduced basal oxygen consumption rate and ATP production | markedly more cytotoxic |
| C(#C[P+](c1ccccc1)(c1ccccc1)c1ccccc1)c1ccccc1 [PET-16, Triphenyl(phenylethynyl)phosphonium bromide, reference compound] | minimal activity | modest ability to decrease CRC cell viability |
